Results as given in patent US20100227827A1, “METHOD OF INCREASING TRYPTOPHAN AND NICOTINAMIDE LEVELS IN VIVO” (priority 2006, published 2010).
“And” between values parts separate entries of the source, which are not always exact repeats. Equal values may be shown once. Where a name gives a salt, the structure may show the parent alone. Marks after values point to notes of the source that are not given here. Values belong to the compound of their own block, whether it stands above or below them.

Experiments:
[1] = Molar ratio from neutralization of free organic acid with hydroxides; type: physicochemical; details: salt or chelate
Procedure: Determination of salts and chelates of some naturally occurring polyhydroxylated and polycarboxylated organic acids are provided in Table 1. Experimental molar ratios were calculated from neutralization to pH=7.5 of free protonated organic acid (H^+) with sodium, potassium or ammonium hydroxides.

[2] = oral human dose 100 mg/kg (50-200 mg/kg); Smith 1982; cited from earlier work
[3] = Mouse 21 day drinking water study, plasma/serum HPLC; type: in vivo, C57BL/6 female mice; details: mice
Procedure: […] The animals were sacrificed, spleens removed and blood collected. The cell samples were analyzed in a […] Corporation, Kobe, Japan) and plasma/serum samples prepared for chemical analysis by HPLC for quinic acid and tryptophan.

[4] = Single high dose quinic acid time study, serum HPLC; type: in vivo; details: human
Procedure: Serum samples of 0.2 and 30 ml were collected from blood, and precipitated with either ethanol or trichloroacetic acid (TCA). After clean-up the supernatants were dried (ethanol precipitated) or used directly. A standard curve was prepared using quinic acid (Sigma) dissolved in distilled water and obeyed the equation y=6012.8x−24698; 20 μl injections of solutions between 0-25 mg/ml were used.
A apparently healthy volunteer drank 6 gm of quinic acid ammonium chelate (Quinmax™) dissolved in 300 ml water over a 15 min period, samples were collected, and then about 40 ml of peripheral blood (4-red topped vacutainers) were allowed to clot at room temperature to prepare serum samples by centrifugation. The serum sampling points were 0.7 hr, 1.7 hr, 2.7 hr, 3.7 hr, 10.5 hr 12.5 hr, hr, 28 hr and 44 hr. 30 ml serum samples were precipitated with 50% ethanol, taken to dryness under a stream of air, and redissolved in 1 ml of methanol for simultaneous HPLC analysis of quinic acid and hippuric acid. The data were reported as quinic acid present in 30 ml of serum. The column used for this experiment was a C18 150×4.6 mm. The mobile phase was 0.1% trifluoroacetic (TFA). The UV detector was set at 220 nm and quinic acid eluted with a retention of 2.26 min and hippuric acid at 8.3 min. Sensitivity of the method was about 1/30=0.033 mg quinic acid/ml serum.
A single high dose of 6000 mg was administered orally to a subject, and then 30 ml serum samples were prepared from whole blood samples taken from 0.7 to 44 hours after exposure. As serum samples were precipitated with ethanol and redissolved in 1 ml […], this allowed for a 30-fold increase in concentration of any quinic acid present in each blood sample, rendering the method extremely sensitive to even small amounts of quinic acid.

[5] = system: indolediamine oxygenase (IDO); assay: IDO activity from tryptophan/kynurenine molar ratio in serum (HPLC); details: quinic acid supplementation in vivo; tryptophan and kynurenine in serum
Procedure: Once tryptophan synthesis has been stimulated by the shikimate pathway, it is then further modified by catabolic metabolism via indolediamine oxygenase (IDO) first to kynurenine and/or hydroxtryptophan-serotonin and/or to quinoline-dopamine or to nicotinamde-NAD (energy). The inhibition of IDO activity by quinic acid exposure in vivo favors reduction in immunosuppressive activity. IDO activity was calculated by determining the molar ratios of tryptophan to kynurenine in 200 ul aliquots of 2 M TCA-precipitated serum by high pressure liquid chromatograph (HPLC). The HPLC method has already been published in all its details except the instrument was a HP 1100 series and the column was a XTERRA MSC18 ([…], 4.6 mm×50 mm) (Laich, A, Neurauter, […], Fuchs, D. More rapid method for simultaneous measurement of tryptophan and kyurenine by HPLC. Clinical Chemistry 48 (3): 579-580, 2002). The effect of quinic acid was further characterized on the end products of the shikimate pathway. Accordingly, quinic acid supplementation was analyzed against IDO activity through simultaneous detection of tryptophan and kynurenine. […]

[6] = Urinary quinic acid, hippuric acid, tryptophan and nicotinamide by HPLC; type: in vivo, human; details: over 9 months, Table 4 and text calculations
Procedure: Blood samples were collected by venal puncture using vacutainers (red top, 10 ml) usually in the morning (a.m.) after 12 hours of fasting. Serum was separated from the blood clot after setting 2 hr on the bench top before centrifugation for 10 min at 1500×g. Sera prepared in this manner were stored at +4° C. until biochemical analysis usually within 1-30 days of collection. Urine samples were collected as a random 50 ml sample in the A.M. during the treatment and follow-up (after treatment for 8 months) periods. Urine was spun at 5000×g for 15 min and the supernatant stored at +4° C. until analyzed within 1 month of collection. After the first analysis all samples were further stored at −20° C. and used for repeat determinations over time. Trial design for the clinical evaluation of Aqua Bimini™ (quinic acid ammonium chelate) was carried out at Lund University beginning Apr. 28, 2006. […] Repeat serum and urine samples were collected throughout the trial period and then pooled into groups for analysis as 6 weeks before (baseline), 4 weeks of intervention (treatment, 36 days) and 8 months dry-out (no treatment). Urine samples were mixed with 1:2:4 v/v/v of: aqueous urine:95% ethanol:ethyl acetate for 10 min with vigorous shaking. The ethyl acetate layer was allowed to separate with gravity at room temperature, and then it was removed with a pipette and evaporated with an air stream to dryness in a vacuum hood. In this manner 1-2 ml of urine were reconstituted in 0.2 ml water or ethanol which represented a 5-10 fold increase in concentration. […] The urine samples were diluted 1:2:4 v/v/v with ethanol and ethyl acetate, and then the ethyl acetate fraction dried, solubilized in 0.2 ml water and used for HPLC analyses with 20 μl injections directly onto a C18 80×4.6 mm. The mobile phase was 0.2% trifluoroacetic (TFA):methanol:acetonitrile (70:30):water in a ratio 8:8:84 (v/v/v). The UV detector was set at 215 nm, and quinic acid eluted with a retention of 0.97-1.05 min and nicotinamide at 2.6-2.9 min. The detection limit in urine was about 1.5 mg/ml for quinic acid and for nicotinamide it was 0.015 mg/ml. […] The urine samples were diluted 1:2:4 v/v/v with ethanol and ethyl acetate, and then the ethyl acetate fraction dried, solubilized in 0.2 ml water and used for HPLC analyses with 20 μl injections directly onto a C18 80×4.6 mm. The mobile phase was 70:30 v/v, 0.2% TFA: 30% methanol. The UV detector was set at 225 nm. Tryptophan eluted after 5.2-5.4 min and hippuric acid after 3.1-3.4 min.

[7] = system: spleen cells; assay: Mouse 21 day drinking water study, spleen cell count; type: in vivo, C57BL/6 female mice; details: mice, after day 21 intervention in drinking water; C-Med-100 4 mg/ml (500 mg/kg), quinic acid 2 mg/ml (250 mg/kg)
Procedure: C57BL/6 female mice were fed 4 mg/ml C-Med-100® or 2 mg/ml quinic acid dissolved in autoclaved tap water for 21 days. The animals were sacrificed, spleens removed and blood collected. The cell samples were analyzed in a […] Corporation, Kobe, Japan) and plasma/serum samples prepared for chemical analysis by HPLC for quinic acid and tryptophan.

Compound: N.N.N.O=C(O)CC(O)(C(=O)O)C(O)C(=O)O (centres unmarked) [Hydroxy citric acid ammonium salt]
Determination of structure existing in water [1]: Chelate

Compound: N[C@@H](Cc1c[nH]c2ccccc12)C(=O)O [Therapeutic tryptophan, tryptophan]
Urinary excretion daily sample, Tryptophan (avg) [2]: Tryptophan. = 1.3 mg/liter^c

Further lines, with some results ahead:

Determination of structure existing in water ([1]; potassium salt): chelate
Compound: O=C(O)[C@]1(O)C[C@@H](O)[C@@H](O)[C@H](O)C1 [Quinic acid potassium salt]

Determination of structure existing in water ([1]; sodium salt): salt
Compound: O=C(O)[C@]1(O)C[C@@H](O)[C@@H](O)[C@H](O)C1 [Quinic acid sodium salt]

level of quinic acid, below HPLC detection ([3]; quinic acid 1 mg/ml in drinking water or about 500 mg/kg, 21 days): < 2000 µg/mL
fraction of total dose taken up into the serum ([4]; in vivo): 0.073%
quinic acid found in systemic circulation ([4]; in vivo): < 0.1 % of the administered dose
quinic acid of total dose taken up into the serum ([4]; in vivo): 4.4 mg
quinic acid either excreted or metabolized ([4]; in vivo, 44 h): 99.9%
time of maximum uptake of quinic acid into serum ([4]; single oral dose 6000 mg): 10.5 h and 12.5 h
IDO activity [5]: inhibits IDO activity
quinic acid dose excreted unmetabolized in the urine [6]: 40-60%
Compound: O=C(O)[C@]1(O)C[C@@H](O)[C@@H](O)[C@H](O)C1 [quinic acid]
In vivo plasma tryptophan mean ± s.d. ([3]; after day 21 intervention in drinking water, C-Med-100 4 mg/ml (500 mg/kg)): 79.4 ± 2.7^c μM
In vivo spleen cells mean ± s.d. [7]: 100 ± 10^c ×10^6
